Measurements as given in ChEMBL document CHEMBL3862012, “Methylene versus carbonyl bridge in the structure of new tubulin polymerization inhibitors with tricyclic A-rings” (Bioorg Med Chem, 2016).

species: Ovis aries; assay: Inhibition of sheep brain tubulin polymerization at 100 uM by DAPI staining-based fluorimetric method relative to control; settings: not given

SMILES	inhibition [%]
COc1ccc(CN2c3ccccc3Oc3ccccc32)cc1O	4

system: not listed separately; assay: Cytotoxicity against human CCRF-CEM cells assessed as growth inhibition at 10 uM after 48 hrs by SRB assay relative to control; format: functional; settings: read-out: GI

SMILES	inhibition of growth at 10 µM [%]
COc1ccc(CN2c3ccccc3Oc3ccccc32)cc1O	88

system: not listed separately; assay: Cytotoxicity against human HL-60(TB) cells assessed as growth inhibition at 10 uM after 48 hrs by SRB assay relative to control; format: functional; settings: HL-60, 48 h, read-out: GI

SMILES	inhibition of growth at 10 µM [%]
COc1ccc(CN2c3ccccc3Oc3ccccc32)cc1O	84

system: not listed separately; assay: Cytotoxicity against human MOLT4 cells assessed as growth inhibition at 10 uM after 48 hrs by SRB assay relative to control; format: functional; settings: MOLT-4, 48 h, read-out: GI

SMILES	inhibition of growth at 10 µM [%]
COc1ccc(CN2c3ccccc3Oc3ccccc32)cc1O	75

system: not listed separately; assay: Cytotoxicity against human SR cells assessed as growth inhibition at 10 uM after 48 hrs by SRB assay relative to control; format: functional; settings: read-out: GI

SMILES	inhibition of growth at 10 µM [%]
COc1ccc(CN2c3ccccc3Oc3ccccc32)cc1O	83

system: not listed separately; assay: Cytotoxicity against human A549 cells assessed as growth inhibition at 10 uM after 48 hrs by SRB assay relative to control; format: functional; settings: A549, 48 h, read-out: GI

SMILES	inhibition of growth at 10 µM [%]
COc1ccc(CN2c3ccccc3Oc3ccccc32)cc1O	62

system: not listed separately; assay: Cytotoxicity against human EKVX cells assessed as growth inhibition at 10 uM after 48 hrs by SRB assay relative to control; format: functional; settings: read-out: GI

SMILES	inhibition of growth at 10 µM [%]
COc1ccc(CN2c3ccccc3Oc3ccccc32)cc1O	65

system: not listed separately; assay: Cytotoxicity against human HOP62 cells assessed as growth inhibition at 10 uM after 48 hrs by SRB assay relative to control; format: functional; settings: HOP-62, 48 h, read-out: GI

SMILES	inhibition of growth at 10 µM [%]
COc1ccc(CN2c3ccccc3Oc3ccccc32)cc1O	58

system: not listed separately; assay: Cytotoxicity against human HOP92 cells assessed as growth inhibition at 10 uM after 48 hrs by SRB assay relative to control; format: functional; settings: HOP-92, 48 h, read-out: GI

SMILES	inhibition of growth at 10 µM [%]
COc1ccc(CN2c3ccccc3Oc3ccccc32)cc1O	67

system: not listed separately; assay: Cytotoxicity against human NCI-H226 cells assessed as growth inhibition at 10 uM after 48 hrs by SRB assay relative to control; format: functional; settings: NCI-H226, 48 h, read-out: GI

SMILES	inhibition of growth at 10 µM [%]
COc1ccc(CN2c3ccccc3Oc3ccccc32)cc1O	6

system: not listed separately; assay: Cytotoxicity against human NCI-H23 cells assessed as growth inhibition at 10 uM after 48 hrs by SRB assay relative to control; format: functional; settings: NCI-H23, 48 h, read-out: GI

SMILES	inhibition of growth at 10 µM [%]
COc1ccc(CN2c3ccccc3Oc3ccccc32)cc1O	66

system: not listed separately; assay: Cytotoxicity against human NCI-H322M cells assessed as growth inhibition at 10 uM after 48 hrs by SRB assay relative to control; format: functional; settings: read-out: GI

SMILES	inhibition of growth at 10 µM [%]
COc1ccc(CN2c3ccccc3Oc3ccccc32)cc1O	44

system: not listed separately; assay: Cytotoxicity against human NCI-H460 cells assessed as growth inhibition at 10 uM after 48 hrs by SRB assay relative to control; format: functional; settings: NCI-H460, 48 h, read-out: GI

SMILES	inhibition of growth at 10 µM [%]
COc1ccc(CN2c3ccccc3Oc3ccccc32)cc1O	87

system: not listed separately; assay: Cytotoxicity against human HCT116 cells assessed as growth inhibition at 10 uM after 48 hrs by SRB assay relative to control; format: functional; settings: HCT-116, 48 h, read-out: GI

SMILES	inhibition of growth at 10 µM [%]
COc1ccc(CN2c3ccccc3Oc3ccccc32)cc1O	86

system: not listed separately; assay: Cytotoxicity against human KM12 cells assessed as growth inhibition at 10 uM after 48 hrs by SRB assay relative to control; format: functional; settings: KM12, 48 h, read-out: GI

SMILES	inhibition of growth at 10 µM [%]
COc1ccc(CN2c3ccccc3Oc3ccccc32)cc1O	79

system: not listed separately; assay: Cytotoxicity against human SF295 cells assessed as growth inhibition at 10 uM after 48 hrs by SRB assay relative to control; format: functional; settings: SF-295, 48 h, read-out: GI

SMILES	inhibition of growth at 10 µM [%]
COc1ccc(CN2c3ccccc3Oc3ccccc32)cc1O	86

system: not listed separately; assay: Cytotoxicity against human SF539 cells assessed as growth inhibition at 10 uM after 48 hrs by SRB assay relative to control; format: functional; settings: SF-539, 48 h, read-out: GI

SMILES	inhibition of growth at 10 µM [%]
COc1ccc(CN2c3ccccc3Oc3ccccc32)cc1O	84

system: not listed separately; assay: Cytotoxicity against human SNB75 cells assessed as growth inhibition at 10 uM after 48 hrs by SRB assay relative to control; format: functional; settings: SNB-75, 48 h, read-out: GI

SMILES	inhibition of growth at 10 µM [%]
COc1ccc(CN2c3ccccc3Oc3ccccc32)cc1O	73

system: not listed separately; assay: Cytotoxicity against human U251 cells assessed as growth inhibition at 10 uM after 48 hrs by SRB assay relative to control; format: functional; settings: U-251, 48 h, read-out: GI

SMILES	inhibition of growth at 10 µM [%]
COc1ccc(CN2c3ccccc3Oc3ccccc32)cc1O	76

system: not listed separately; assay: Cytotoxicity against human MALME-3M cells assessed as growth inhibition at 10 uM after 48 hrs by SRB assay relative to control; format: functional; settings: read-out: GI

SMILES	inhibition of growth at 10 µM [%]
COc1ccc(CN2c3ccccc3Oc3ccccc32)cc1O	55

system: not listed separately; assay: Cytotoxicity against human M14 cells assessed as growth inhibition at 10 uM after 48 hrs by SRB assay relative to control; format: functional; settings: M14, 48 h, read-out: GI

SMILES	inhibition of growth at 10 µM [%]
COc1ccc(CN2c3ccccc3Oc3ccccc32)cc1O	82

system: not listed separately; assay: Cytotoxicity against human MDA-MB-435 cells assessed as growth inhibition at 10 uM after 48 hrs by SRB assay relative to control; format: functional; settings: MDA-MB-435, 48 h, read-out: GI

SMILES	inhibition of growth at 10 µM [%]
COc1ccc(CN2c3ccccc3Oc3ccccc32)cc1O	91

system: not listed separately; assay: Cytotoxicity against human OVCAR3 cells assessed as growth inhibition at 10 uM after 48 hrs by SRB assay relative to control; format: functional; settings: OVCAR-3, 48 h, read-out: GI

SMILES	inhibition of growth at 10 µM [%]
COc1ccc(CN2c3ccccc3Oc3ccccc32)cc1O	81

system: not listed separately; assay: Cytotoxicity against human NCI-ADR-RES cells assessed as growth inhibition at 10 uM after 48 hrs by SRB assay relative to control; format: functional; settings: read-out: GI

SMILES	inhibition of growth at 10 µM [%]
COc1ccc(CN2c3ccccc3Oc3ccccc32)cc1O	75

system: not listed separately; assay: Cytotoxicity against human SKOV3 cells assessed as growth inhibition at 10 uM after 48 hrs by SRB assay relative to control; format: functional; settings: SK-OV-3, 48 h, read-out: GI

SMILES	inhibition of growth at 10 µM [%]
COc1ccc(CN2c3ccccc3Oc3ccccc32)cc1O	69

system: not listed separately; assay: Cytotoxicity against human 786-0 cells assessed as growth inhibition at 10 uM after 48 hrs by SRB assay relative to control; format: functional; settings: 786-0, 48 h, read-out: GI

SMILES	inhibition of growth at 10 µM [%]
COc1ccc(CN2c3ccccc3Oc3ccccc32)cc1O	57

system: not listed separately; assay: Cytotoxicity against human Caki1 cells assessed as growth inhibition at 10 uM after 48 hrs by SRB assay relative to control; format: functional; settings: CAKI-1, 48 h, read-out: GI

SMILES	inhibition of growth at 10 µM [%]
COc1ccc(CN2c3ccccc3Oc3ccccc32)cc1O	61

system: not listed separately; assay: Cytotoxicity against human RXF393 cells assessed as growth inhibition at 10 uM after 48 hrs by SRB assay relative to control; format: functional; settings: RXF 393, 48 h, read-out: GI

SMILES	inhibition of growth at 10 µM [%]
COc1ccc(CN2c3ccccc3Oc3ccccc32)cc1O	50

system: not listed separately; assay: Cytotoxicity against human TK10 cells assessed as growth inhibition at 10 uM after 48 hrs by SRB assay relative to control; format: functional; settings: TK-10, 48 h, read-out: GI

SMILES	inhibition of growth at 10 µM [%]
COc1ccc(CN2c3ccccc3Oc3ccccc32)cc1O	36

system: not listed separately; assay: Cytotoxicity against human UO31 cells assessed as growth inhibition at 10 uM after 48 hrs by SRB assay relative to control; format: functional; settings: UO-31, 48 h, read-out: GI

SMILES	inhibition of growth at 10 µM [%]
COc1ccc(CN2c3ccccc3Oc3ccccc32)cc1O	68

system: not listed separately; assay: Cytotoxicity against human PC3 cells assessed as growth inhibition at 10 uM after 48 hrs by SRB assay relative to control; format: functional; settings: PC-3, 48 h, read-out: GI

SMILES	inhibition of growth at 10 µM [%]
COc1ccc(CN2c3ccccc3Oc3ccccc32)cc1O	69

system: not listed separately; assay: Cytotoxicity against human DU145 cells assessed as growth inhibition at 10 uM after 48 hrs by SRB assay relative to control; format: functional; settings: DU-145, 48 h, read-out: GI

SMILES	inhibition of growth at 10 µM [%]
COc1ccc(CN2c3ccccc3Oc3ccccc32)cc1O	63

system: not listed separately; assay: Cytotoxicity against human MCF7 cells assessed as growth inhibition at 10 uM after 48 hrs by SRB assay relative to control; format: functional; settings: MCF7, 48 h, read-out: GI

SMILES	inhibition of growth at 10 µM [%]
COc1ccc(CN2c3ccccc3Oc3ccccc32)cc1O	73

system: not listed separately; assay: Cytotoxicity against human MDA-MB-231 cells assessed as growth inhibition at 10 uM after 48 hrs by SRB assay relative to control; format: functional; settings: MDA-MB-231, 48 h, read-out: GI

SMILES	inhibition of growth at 10 µM [%]
COc1ccc(CN2c3ccccc3Oc3ccccc32)cc1O	43

system: not listed separately; assay: Cytotoxicity against human BT549 cells assessed as growth inhibition at 10 uM after 48 hrs by SRB assay relative to control; format: functional; settings: BT-549, 48 h, read-out: GI

SMILES	inhibition of growth at 10 µM [%]
COc1ccc(CN2c3ccccc3Oc3ccccc32)cc1O	60

system: not listed separately; assay: Cytotoxicity against human T47D cells assessed as growth inhibition at 10 uM after 48 hrs by SRB assay relative to control; format: functional; settings: read-out: GI

SMILES	inhibition of growth at 10 µM [%]
COc1ccc(CN2c3ccccc3Oc3ccccc32)cc1O	69

system: not listed separately; assay: Cytotoxicity against human MDA-MB-468 cells assessed as growth inhibition at 10 uM after 48 hrs by SRB assay relative to control; format: functional; settings: MDA-MB-468, 48 h, read-out: GI

SMILES	inhibition of growth at 10 µM [%]
COc1ccc(CN2c3ccccc3Oc3ccccc32)cc1O	93
